“And” between values parts separate entries of the source, which are not always exact repeats. Identical values can stand only once. Results filed as inconclusive are left out.
Tested on: Lewis lung carcinoma i.m., BDF1 mice, T/C %
Test: NCI In Vivo Anticancer Drug Screen. Data for tumor model Lewis Lung Carcinoma (intramuscular) in B6D2F1 (BDF1) mice
Summary of the method: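 Value is the ratio of a treated-group measurement (T) to the matching vehicle-control measurement (C), using either survival or tumour size in mice bearing transplanted tumours.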

With `CC(CN1CC(=O)NC(=O)C1)N1CC(=O)NC(=O)C1` (centres undefined) the T/C (endpoint: mean tumor weight, dose: 6.25 mg/kg/injection, schedule: Q01DX005 (ip), vehicle: Klucel (hydroxypropylcellulose) (HPC), higher = larger tumour) was 61 % of control, the T/C (endpoint: mean tumor weight, dose: 6.25 mg/kg/injection, schedule: Q01DX009 (ip), vehicle: Klucel (hydroxypropylcellulose) (HPC), higher = larger tumour) was 49 % of control and the T/C (endpoint: mean tumor weight, dose: 6.25 mg/kg/injection, schedule: Q01DX011 (ip), vehicle: Klucel (hydroxypropylcellulose) (HPC), higher = larger tumour) was 73 % of control. The T/C (endpoint: mean tumor weight, dose: 6.25 mg/kg/injection, schedule: Q01DX017 (ip), vehicle: Klucel (hydroxypropylcellulose) (HPC), higher = larger tumour) was 57 % of control, the T/C (endpoint: mean tumor weight, dose: 12.5 mg/kg/injection, schedule: Q01DX005 (ip), vehicle: Klucel (hydroxypropylcellulose) (HPC), higher = larger tumour) was 62 % of control and the T/C (endpoint: mean tumor weight, dose: 12.5 mg/kg/injection, schedule: Q01DX009 (ip), vehicle: Klucel (hydroxypropylcellulose) (HPC), higher = larger tumour) was 59 % of control. The T/C (endpoint: mean tumor weight, dose: 12.5 mg/kg/injection, schedule: Q01DX011 (ip), vehicle: Klucel (hydroxypropylcellulose) (HPC), higher = larger tumour) was 52 % of control, the T/C (endpoint: mean tumor weight, dose: 12.5 mg/kg/injection, schedule: Q01DX011 (ip), vehicle: steriod suspending solution, higher = larger tumour) was 83 % of control and 85 % of control and the T/C (endpoint: mean tumor weight, dose: 12.5 mg/kg/injection, schedule: Q01DX017 (ip), vehicle: Klucel (hydroxypropylcellulose) (HPC), higher = larger tumour) was 49 % of control. The T/C (endpoint: mean tumor weight, dose: 25.0 mg/kg/injection, schedule: Q01DX005 (ip), vehicle: Klucel (hydroxypropylcellulose) (HPC), higher = larger tumour) was 50 % of control, the T/C (endpoint: mean tumor weight, dose: 25.0 mg/kg/injection, schedule: Q01DX009 (ip), vehicle: Klucel (hydroxypropylcellulose) (HPC), higher = larger tumour) was 26 % of control and the T/C (endpoint: mean tumor weight, dose: 25.0 mg/kg/injection, schedule: Q01DX011 (ip), vehicle: Klucel (hydroxypropylcellulose) (HPC), higher = larger tumour) was 39 % of control. The T/C (endpoint: mean tumor weight, dose: 25.0 mg/kg/injection, schedule: Q01DX017 (ip), vehicle: Klucel (hydroxypropylcellulose) (HPC), higher = larger tumour) was 44 % of control, the T/C (endpoint: mean tumor weight, dose: 25.0 mg/kg/injection, schedule: Q04DX003 (ip), vehicle: Klucel (hydroxypropylcellulose) (HPC), higher = larger tumour) was 99 % of control and the T/C (endpoint: mean tumor weight, dose: 25.0 mg/kg/injection, schedule: Q04DX005 (ip), vehicle: Klucel (hydroxypropylcellulose) (HPC), higher = larger tumour) was 104 % of control. For the same compound, the T/C (endpoint: mean tumor weight, dose: 50.0 mg/kg/injection, schedule: Q01DX005 (ip), vehicle: Klucel (hydroxypropylcellulose) (HPC), higher = larger tumour) was 49 % of control, the T/C (endpoint: mean tumor weight, dose: 50.0 mg/kg/injection, schedule: Q01DX009 (ip), vehicle: Klucel (hydroxypropylcellulose) (HPC), higher = larger tumour) was 32 % of control and the T/C (endpoint: mean tumor weight, dose: 50.0 mg/kg/injection, schedule: Q01DX011 (ip), vehicle: Klucel (hydroxypropylcellulose) (HPC), higher = larger tumour) was 14 % of control. The T/C (endpoint: mean tumor weight, dose: 50.0 mg/kg/injection, schedule: Q04DX003 (ip), vehicle: Klucel (hydroxypropylcellulose) (HPC), higher = larger tumour) was 80 % of control, the T/C (endpoint: mean tumor weight, dose: 50.0 mg/kg/injection, schedule: Q04DX005 (ip), vehicle: Klucel (hydroxypropylcellulose) (HPC), higher = larger tumour) was 85 % of control and the T/C (endpoint: mean tumor weight, dose: 100.0 mg/kg/injection, schedule: Q01DX005 (ip), vehicle: Klucel (hydroxypropylcellulose) (HPC), higher = larger tumour) was 21 % of control. For the same compound, the T/C (endpoint: mean tumor weight, dose: 100.0 mg/kg/injection, schedule: Q04DX003 (ip), vehicle: Klucel (hydroxypropylcellulose) (HPC), higher = larger tumour) was 70 % of control and 80 % of control, the T/C (endpoint: mean tumor weight, dose: 100.0 mg/kg/injection, schedule: Q04DX005 (ip), vehicle: Klucel (hydroxypropylcellulose) (HPC), higher = larger tumour) was 78 % of control and the T/C (endpoint: mean tumor weight, dose: 200.0 mg/kg/injection, schedule: Q04DX003 (ip), vehicle: Klucel (hydroxypropylcellulose) (HPC), higher = larger tumour) was 50 % of control and 58 % of control. For the same compound, the T/C (endpoint: mean tumor weight, dose: 200.0 mg/kg/injection, schedule: Q04DX005 (ip), vehicle: Klucel (hydroxypropylcellulose) (HPC), higher = larger tumour) was 56 % of control, the T/C (endpoint: mean tumor weight, dose: 400.0 mg/kg/injection, schedule: Q04DX003 (ip), vehicle: Klucel (hydroxypropylcellulose) (HPC), higher = larger tumour) was 6 % of control and the T/C (endpoint: mean tumor weight, dose: 400.0 mg/kg/injection, schedule: Q04DX005 (ip), vehicle: Klucel (hydroxypropylcellulose) (HPC), higher = larger tumour) was 7 % of control. The T/C (endpoint: median survival time, dose: 6.25 mg/kg/injection, schedule: Q01DX005 (ip), vehicle: Klucel (hydroxypropylcellulose) (HPC), higher = longer survival) was 111 % of control, the T/C (endpoint: median survival time, dose: 6.25 mg/kg/injection, schedule: Q01DX009 (ip), vehicle: Klucel (hydroxypropylcellulose) (HPC), higher = longer survival) was 105 % of control and the T/C (endpoint: median survival time, dose: 6.25 mg/kg/injection, schedule: Q01DX011 (ip), vehicle: Klucel (hydroxypropylcellulose) (HPC), higher = longer survival) was 117 % of control. The T/C (endpoint: median survival time, dose: 6.25 mg/kg/injection, schedule: Q01DX017 (ip), vehicle: Klucel (hydroxypropylcellulose) (HPC), higher = longer survival) was 113 % of control, the T/C (endpoint: median survival time, dose: 12.5 mg/kg/injection, schedule: Q01DX005 (ip), vehicle: Klucel (hydroxypropylcellulose) (HPC), higher = longer survival) was 96 % of control and the T/C (endpoint: median survival time, dose: 12.5 mg/kg/injection, schedule: Q01DX009 (ip), vehicle: Klucel (hydroxypropylcellulose) (HPC), higher = longer survival) was 100 % of control. For the same compound, the T/C (endpoint: median survival time, dose: 12.5 mg/kg/injection, schedule: Q01DX011 (ip), vehicle: Klucel (hydroxypropylcellulose) (HPC), higher = longer survival) was 92 % of control, the T/C (endpoint: median survival time, dose: 12.5 mg/kg/injection, schedule: Q01DX017 (ip), vehicle: Klucel (hydroxypropylcellulose) (HPC), higher = longer survival) was 86 % of control and the T/C (endpoint: median survival time, dose: 15.0 mg/kg/injection, schedule: Q01DX011 (ip), vehicle: carboxymethylcellulose (CMC), higher = longer survival) was 100 % of control. The T/C (endpoint: median survival time, dose: 25.0 mg/kg/injection, schedule: Q01DX005 (ip), vehicle: Klucel (hydroxypropylcellulose) (HPC), higher = longer survival) was 94 % of control, the T/C (endpoint: median survival time, dose: 25.0 mg/kg/injection, schedule: Q01DX009 (ip), vehicle: Klucel (hydroxypropylcellulose) (HPC), higher = longer survival) was 111 % of control and the T/C (endpoint: median survival time, dose: 25.0 mg/kg/injection, schedule: Q01DX011 (ip), vehicle: Klucel (hydroxypropylcellulose) (HPC), higher = longer survival) was 98 % of control. The T/C (endpoint: median survival time, dose: 25.0 mg/kg/injection, schedule: Q04DX003 (ip), vehicle: Klucel (hydroxypropylcellulose) (HPC), higher = longer survival) was 98 % of control, the T/C (endpoint: median survival time, dose: 25.0 mg/kg/injection, schedule: Q04DX005 (ip), vehicle: Klucel (hydroxypropylcellulose) (HPC), higher = longer survival) was 103 % of control and the T/C (endpoint: median survival time, dose: 30.0 mg/kg/injection, schedule: Q01DX011 (ip), vehicle: carboxymethylcellulose (CMC), higher = longer survival) was 105 % of control. The T/C (endpoint: median survival time, dose: 50.0 mg/kg/injection, schedule: Q01DX005 (ip), vehicle: Klucel (hydroxypropylcellulose) (HPC), higher = longer survival) was 105 % of control, the T/C (endpoint: median survival time, dose: 50.0 mg/kg/injection, schedule: Q01DX009 (ip), vehicle: Klucel (hydroxypropylcellulose) (HPC), higher = longer survival) was 94 % of control and the T/C (endpoint: median survival time, dose: 50.0 mg/kg/injection, schedule: Q01DX011 (ip), vehicle: Klucel (hydroxypropylcellulose) (HPC), higher = longer survival) was 113 % of control. For the same compound, the T/C (endpoint: median survival time, dose: 50.0 mg/kg/injection, schedule: Q04DX003 (ip), vehicle: Klucel (hydroxypropylcellulose) (HPC), higher = longer survival) was 96 % of control, the T/C (endpoint: median survival time, dose: 50.0 mg/kg/injection, schedule: Q04DX005 (ip), vehicle: Klucel (hydroxypropylcellulose) (HPC), higher = longer survival) was 100 % of control and the T/C (endpoint: median survival time, dose: 100.0 mg/kg/injection, schedule: Q01DX001 (ip), vehicle: other, higher = longer survival) was 89 % of control. For the same compound, the T/C (endpoint: median survival time, dose: 100.0 mg/kg/injection, schedule: Q01DX001 (ip), vehicle: steriod suspending solution, higher = longer survival) was 93 % of control, the T/C (endpoint: median survival time, dose: 100.0 mg/kg/injection, schedule: Q01DX005 (ip), vehicle: Klucel (hydroxypropylcellulose) (HPC), higher = longer survival) was 119 % of control and the T/C (endpoint: median survival time, dose: 100.0 mg/kg/injection, schedule: Q04DX003 (ip), vehicle: Klucel (hydroxypropylcellulose) (HPC), higher = longer survival) was 90 % of control and 108 % of control (2×). The T/C (endpoint: median survival time, dose: 100.0 mg/kg/injection, schedule: Q04DX005 (ip), vehicle: Klucel (hydroxypropylcellulose) (HPC), higher = longer survival) was 101 % of control, the T/C (endpoint: median survival time, dose: 200.0 mg/kg/injection, schedule: Q01DX001 (ip), vehicle: other, higher = longer survival) was 86 % of control and the T/C (endpoint: median survival time, dose: 200.0 mg/kg/injection, schedule: Q01DX001 (ip), vehicle: steriod suspending solution, higher = longer survival) was 93 % of control. The T/C (endpoint: median survival time, dose: 200.0 mg/kg/injection, schedule: Q04DX003 (ip), vehicle: Klucel (hydroxypropylcellulose) (HPC), higher = longer survival) was 111 % of control and 115 % of control and 117 % of control, the T/C (endpoint: median survival time, dose: 200.0 mg/kg/injection, schedule: Q04DX005 (ip), vehicle: Klucel (hydroxypropylcellulose) (HPC), higher = longer survival) was 115 % of control and the T/C (endpoint: median survival time, dose: 400.0 mg/kg/injection, schedule: Q01DX001 (ip), vehicle: other, higher = longer survival) was 76 % of control. The T/C (endpoint: median survival time, dose: 400.0 mg/kg/injection, schedule: Q04DX003 (ip), vehicle: Klucel (hydroxypropylcellulose) (HPC), higher = longer survival) was 123 % of control, the T/C (endpoint: median survival time, dose: 800.0 mg/kg/injection, schedule: Q01DX001 (ip), vehicle: other, higher = longer survival) was 78 % of control and the T/C (endpoint: median survival time, dose: 800.0 mg/kg/injection, schedule: Q01DX001 (ip), vehicle: steriod suspending solution, higher = longer survival) was 87 % of control. The T/C (endpoint: median survival time, dose: 800.0 mg/kg/injection, schedule: Q04DX003 (ip), vehicle: Klucel (hydroxypropylcellulose) (HPC), higher = longer survival) was 29 % of control.
`CCCCOc1ccc(NC(N)=Nc2ccc(Cl)cc2)cc1` was tested, and the T/C (endpoint: mean tumor weight (est.), dose: 3.12 mg/kg/injection, schedule: Q01DX011 (ip), vehicle: saline with Tween-80, higher = larger tumour) was 118 % of control, the T/C (endpoint: mean tumor weight (est.), dose: 6.25 mg/kg/injection, schedule: Q01DX011 (ip), vehicle: saline with Tween-80, higher = larger tumour) was 101 % of control and the T/C (endpoint: mean tumor weight (est.), dose: 12.5 mg/kg/injection, schedule: Q01DX011 (ip), vehicle: saline with Tween-80, higher = larger tumour) was 67 % of control. The T/C (endpoint: mean tumor weight (est.), dose: 25.0 mg/kg/injection, schedule: Q01DX011 (ip), vehicle: saline with Tween-80, higher = larger tumour) was 58 % of control, the T/C (endpoint: median survival time, dose: 3.12 mg/kg/injection, schedule: Q01DX011 (ip), vehicle: saline with Tween-80, higher = longer survival) was 97 % of control and the T/C (endpoint: median survival time, dose: 6.25 mg/kg/injection, schedule: Q01DX011 (ip), vehicle: saline with Tween-80, higher = longer survival) was 123 % of control. For the same compound, the T/C (endpoint: median survival time, dose: 12.5 mg/kg/injection, schedule: Q01DX011 (ip), vehicle: saline with Tween-80, higher = longer survival) was 102 % of control and the T/C (endpoint: median survival time, dose: 25.0 mg/kg/injection, schedule: Q01DX011 (ip), vehicle: saline with Tween-80, higher = longer survival) was 104 % of control.
